Results from BigSolDB 2.1.

NS(=O)(=O)Cc1noc2ccccc12
solubility (mole fraction)
Conditions	273.15 K	278.15 K	283.15 K	288.15 K	293.15 K	298.15 K	303.15 K	308.15 K	313.15 K
in 1,4-dioxane	–	–	–	0.024	0.0294	0.0354	0.0416	0.0488	0.0563
in 2-butanone	0.0132	0.0154	0.0179	0.0209	0.0244	0.0282	0.0319	0.0358	0.0399
in DMF	0.0192	0.0278	0.0374	0.0469	0.0575	0.0687	0.0812	0.0946	0.108
in acetonitrile	0.00562	0.00691	0.00821	0.00982	0.0114	0.0131	0.0149	0.0171	0.0191
in cyclohexanone	0.00739	0.00898	0.0109	0.0129	0.0155	0.0184	0.0218	0.0262	0.0307
in ethanol	0.00112	0.00135	0.00159	0.00188	0.00221	0.00255	0.0029	0.0033	0.00373
in ethyl acetate	0.00498	0.00558	0.00625	0.00704	0.00793	0.00882	0.0098	0.0108	0.0118
in isopropanol	0.000617	0.000791	0.000996	0.00122	0.00146	0.00173	0.00207	0.00241	0.00274
in methanol	0.00253	0.00274	0.00298	0.00326	0.00353	0.00387	0.00421	0.0046	0.005
in n-butanol	0.00017	0.00026	0.000383	0.000528	0.000721	0.00095	0.00122	0.00148	0.00178
in n-propanol	0.00041	0.000546	0.000697	0.000862	0.00105	0.00126	0.00149	0.00175	0.002
in toluene	3.56e-05	5.05e-05	6.73e-05	8.69e-05	0.000106	0.000131	0.00016	0.000193	0.00023
